Measured values published in ChEMBL document CHEMBL4507268 (2021).

Legend:
[1] = biological target: Casein kinase I isoform gamma-3 (Homo sapiens) (UniProt Q9Y6M4); details: Compound concentration 1000.0 nM
[2] = biological target: T1, cAMP-dependent protein kinase catalytic subunit PRKX (Homo sapiens) (UniProt P51817); details: Compound concentration 1000.0 nM
T1 sequence (whole entry): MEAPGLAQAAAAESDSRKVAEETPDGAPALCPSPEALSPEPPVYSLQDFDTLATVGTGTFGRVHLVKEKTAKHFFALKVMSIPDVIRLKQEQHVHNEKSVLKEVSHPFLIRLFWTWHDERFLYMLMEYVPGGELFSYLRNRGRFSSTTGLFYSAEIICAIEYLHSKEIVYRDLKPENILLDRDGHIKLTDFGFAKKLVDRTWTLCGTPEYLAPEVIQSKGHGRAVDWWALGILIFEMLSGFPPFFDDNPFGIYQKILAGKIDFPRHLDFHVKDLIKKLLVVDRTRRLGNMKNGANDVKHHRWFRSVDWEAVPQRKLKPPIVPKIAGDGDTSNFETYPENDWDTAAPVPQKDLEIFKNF

[3] = biological target: Ribosomal protein S6 kinase alpha-3 (Homo sapiens) (UniProt P51812); details: Compound concentration 1000.0 nM
Chain of Ribosomal protein S6 kinase alpha-3 (Homo sapiens) (P51812 whole entry): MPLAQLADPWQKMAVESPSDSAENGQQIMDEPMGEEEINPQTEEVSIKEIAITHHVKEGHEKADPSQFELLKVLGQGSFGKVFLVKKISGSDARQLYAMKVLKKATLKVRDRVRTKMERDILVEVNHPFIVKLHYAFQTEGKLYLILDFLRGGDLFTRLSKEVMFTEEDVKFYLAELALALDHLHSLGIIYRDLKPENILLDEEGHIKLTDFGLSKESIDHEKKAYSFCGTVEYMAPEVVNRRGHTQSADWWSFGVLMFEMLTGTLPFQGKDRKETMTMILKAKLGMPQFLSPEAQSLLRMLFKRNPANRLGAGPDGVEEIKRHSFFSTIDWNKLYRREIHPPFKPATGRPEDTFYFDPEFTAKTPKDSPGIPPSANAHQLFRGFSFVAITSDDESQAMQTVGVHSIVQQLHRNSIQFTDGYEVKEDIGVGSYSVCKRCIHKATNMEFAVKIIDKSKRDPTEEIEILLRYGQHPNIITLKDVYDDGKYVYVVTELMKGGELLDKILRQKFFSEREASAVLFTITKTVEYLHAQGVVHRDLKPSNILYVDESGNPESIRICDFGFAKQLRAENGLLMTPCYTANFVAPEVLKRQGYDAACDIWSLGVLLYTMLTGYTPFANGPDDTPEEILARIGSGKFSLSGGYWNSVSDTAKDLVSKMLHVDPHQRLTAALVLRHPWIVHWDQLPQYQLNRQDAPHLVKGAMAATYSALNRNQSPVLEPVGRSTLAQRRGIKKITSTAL

[4] = biological target: Tyrosine-protein kinase CSK (Homo sapiens) (UniProt P41240); details: Compound concentration 1000.0 nM
Chain of Tyrosine-protein kinase CSK (Homo sapiens) (P41240 2-450 limits assumed): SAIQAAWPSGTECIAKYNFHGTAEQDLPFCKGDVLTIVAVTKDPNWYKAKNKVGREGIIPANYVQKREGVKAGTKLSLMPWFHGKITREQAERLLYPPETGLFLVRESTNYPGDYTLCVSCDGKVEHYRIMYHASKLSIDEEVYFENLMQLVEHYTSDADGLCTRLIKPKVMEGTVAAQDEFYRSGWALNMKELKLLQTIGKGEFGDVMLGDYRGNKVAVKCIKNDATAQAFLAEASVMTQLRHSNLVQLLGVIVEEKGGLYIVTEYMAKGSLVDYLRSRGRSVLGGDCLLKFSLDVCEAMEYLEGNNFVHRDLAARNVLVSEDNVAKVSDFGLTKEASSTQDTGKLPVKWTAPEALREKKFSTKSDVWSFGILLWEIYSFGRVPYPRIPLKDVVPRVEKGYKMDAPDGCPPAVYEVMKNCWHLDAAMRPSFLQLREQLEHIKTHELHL

[5] = biological target: T2, Serine/threonine-protein kinase ICK (Homo sapiens) (UniProt Q9UPZ9); details: Compound concentration 1000.0 nM
T2 sequence (whole entry): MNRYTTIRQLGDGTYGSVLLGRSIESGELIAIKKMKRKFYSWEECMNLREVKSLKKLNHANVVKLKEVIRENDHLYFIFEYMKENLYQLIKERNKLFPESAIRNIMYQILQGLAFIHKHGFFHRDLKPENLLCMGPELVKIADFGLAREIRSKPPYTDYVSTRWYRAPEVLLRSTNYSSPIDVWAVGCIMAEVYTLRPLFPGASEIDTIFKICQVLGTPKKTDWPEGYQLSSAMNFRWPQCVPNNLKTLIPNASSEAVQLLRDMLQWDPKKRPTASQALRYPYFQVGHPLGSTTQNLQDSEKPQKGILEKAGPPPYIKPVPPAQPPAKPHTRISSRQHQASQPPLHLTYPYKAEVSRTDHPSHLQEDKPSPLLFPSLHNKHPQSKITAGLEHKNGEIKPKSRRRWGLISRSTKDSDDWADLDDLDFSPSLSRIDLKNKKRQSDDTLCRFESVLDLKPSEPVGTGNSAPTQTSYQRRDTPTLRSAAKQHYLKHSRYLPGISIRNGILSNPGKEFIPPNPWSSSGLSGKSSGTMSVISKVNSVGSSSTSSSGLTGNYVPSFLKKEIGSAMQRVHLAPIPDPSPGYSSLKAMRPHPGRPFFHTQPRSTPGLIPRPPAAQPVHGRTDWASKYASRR

[6] = biological target: Serine/threonine-protein kinase PAK 3 (Homo sapiens) (UniProt O75914); details: Compound concentration 1000.0 nM
[7] = biological target: Tyrosine-protein kinase ABL1 (Homo sapiens) (UniProt P00519); details: Compound concentration 1000.0 nM
Chain of Tyrosine-protein kinase ABL1 (Homo sapiens) (P00519 whole entry): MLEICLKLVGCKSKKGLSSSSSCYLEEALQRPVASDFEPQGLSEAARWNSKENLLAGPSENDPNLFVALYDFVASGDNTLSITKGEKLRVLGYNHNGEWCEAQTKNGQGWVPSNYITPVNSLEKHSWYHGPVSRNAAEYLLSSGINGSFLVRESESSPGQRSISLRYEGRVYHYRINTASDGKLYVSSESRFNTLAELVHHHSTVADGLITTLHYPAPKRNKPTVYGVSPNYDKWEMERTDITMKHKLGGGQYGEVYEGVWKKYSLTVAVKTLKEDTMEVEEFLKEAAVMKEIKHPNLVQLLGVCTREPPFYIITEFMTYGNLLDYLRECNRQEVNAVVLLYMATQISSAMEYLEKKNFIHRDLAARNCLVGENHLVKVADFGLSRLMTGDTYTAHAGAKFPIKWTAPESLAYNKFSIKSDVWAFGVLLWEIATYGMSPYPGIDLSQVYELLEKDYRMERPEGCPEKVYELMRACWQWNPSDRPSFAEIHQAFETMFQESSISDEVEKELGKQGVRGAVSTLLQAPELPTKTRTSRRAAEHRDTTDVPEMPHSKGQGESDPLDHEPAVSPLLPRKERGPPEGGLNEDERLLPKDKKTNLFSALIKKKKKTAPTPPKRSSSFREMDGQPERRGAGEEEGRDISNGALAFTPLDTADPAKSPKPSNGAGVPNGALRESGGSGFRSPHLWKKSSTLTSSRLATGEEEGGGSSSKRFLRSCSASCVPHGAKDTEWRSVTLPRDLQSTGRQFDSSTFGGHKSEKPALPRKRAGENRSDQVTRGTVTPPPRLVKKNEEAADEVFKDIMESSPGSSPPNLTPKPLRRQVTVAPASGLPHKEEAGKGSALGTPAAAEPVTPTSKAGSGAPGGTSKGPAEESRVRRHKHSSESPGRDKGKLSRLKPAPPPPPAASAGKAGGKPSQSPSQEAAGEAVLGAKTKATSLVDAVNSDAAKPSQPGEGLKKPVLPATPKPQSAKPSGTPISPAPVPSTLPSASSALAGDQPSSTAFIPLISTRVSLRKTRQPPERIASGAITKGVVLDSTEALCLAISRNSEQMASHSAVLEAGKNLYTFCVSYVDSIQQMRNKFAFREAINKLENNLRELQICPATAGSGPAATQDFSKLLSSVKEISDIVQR

[8] = biological target: Casein kinase II subunit alpha (Homo sapiens) (UniProt P68400); details: Compound concentration 1000.0 nM
[9] = biological target: Ribosomal protein S6 kinase alpha-1 (Homo sapiens) (UniProt Q15418); details: Compound concentration 1000.0 nM
Chain of Ribosomal protein S6 kinase alpha-1 (Homo sapiens) (Q15418 whole entry): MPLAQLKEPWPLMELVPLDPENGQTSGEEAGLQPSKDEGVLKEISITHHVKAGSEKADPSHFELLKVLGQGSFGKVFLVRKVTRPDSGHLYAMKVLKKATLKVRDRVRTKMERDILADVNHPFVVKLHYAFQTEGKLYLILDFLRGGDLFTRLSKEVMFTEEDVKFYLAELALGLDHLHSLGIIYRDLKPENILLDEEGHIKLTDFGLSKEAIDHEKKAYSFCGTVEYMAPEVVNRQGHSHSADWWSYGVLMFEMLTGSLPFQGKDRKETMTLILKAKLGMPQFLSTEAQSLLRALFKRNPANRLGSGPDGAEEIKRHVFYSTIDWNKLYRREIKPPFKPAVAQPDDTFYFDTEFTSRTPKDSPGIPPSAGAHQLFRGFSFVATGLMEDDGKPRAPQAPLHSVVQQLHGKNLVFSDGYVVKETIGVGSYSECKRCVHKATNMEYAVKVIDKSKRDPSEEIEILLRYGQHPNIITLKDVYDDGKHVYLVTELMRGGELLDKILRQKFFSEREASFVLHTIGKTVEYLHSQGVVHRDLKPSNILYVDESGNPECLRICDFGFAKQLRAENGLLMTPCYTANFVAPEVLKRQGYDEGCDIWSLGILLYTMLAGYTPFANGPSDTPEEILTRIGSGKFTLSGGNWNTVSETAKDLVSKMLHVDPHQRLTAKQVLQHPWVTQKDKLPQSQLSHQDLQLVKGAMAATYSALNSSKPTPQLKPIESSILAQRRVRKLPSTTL

[10] = tested on: Epidermal growth factor receptor (Homo sapiens), P00533 [UNDEFINED MUTATION]; details: Compound concentration 1000.0 nM
Chain of Epidermal growth factor receptor (Homo sapiens), P00533 [UNDEFINED MUTATION] (P00533 whole entry, looked up, change not shown): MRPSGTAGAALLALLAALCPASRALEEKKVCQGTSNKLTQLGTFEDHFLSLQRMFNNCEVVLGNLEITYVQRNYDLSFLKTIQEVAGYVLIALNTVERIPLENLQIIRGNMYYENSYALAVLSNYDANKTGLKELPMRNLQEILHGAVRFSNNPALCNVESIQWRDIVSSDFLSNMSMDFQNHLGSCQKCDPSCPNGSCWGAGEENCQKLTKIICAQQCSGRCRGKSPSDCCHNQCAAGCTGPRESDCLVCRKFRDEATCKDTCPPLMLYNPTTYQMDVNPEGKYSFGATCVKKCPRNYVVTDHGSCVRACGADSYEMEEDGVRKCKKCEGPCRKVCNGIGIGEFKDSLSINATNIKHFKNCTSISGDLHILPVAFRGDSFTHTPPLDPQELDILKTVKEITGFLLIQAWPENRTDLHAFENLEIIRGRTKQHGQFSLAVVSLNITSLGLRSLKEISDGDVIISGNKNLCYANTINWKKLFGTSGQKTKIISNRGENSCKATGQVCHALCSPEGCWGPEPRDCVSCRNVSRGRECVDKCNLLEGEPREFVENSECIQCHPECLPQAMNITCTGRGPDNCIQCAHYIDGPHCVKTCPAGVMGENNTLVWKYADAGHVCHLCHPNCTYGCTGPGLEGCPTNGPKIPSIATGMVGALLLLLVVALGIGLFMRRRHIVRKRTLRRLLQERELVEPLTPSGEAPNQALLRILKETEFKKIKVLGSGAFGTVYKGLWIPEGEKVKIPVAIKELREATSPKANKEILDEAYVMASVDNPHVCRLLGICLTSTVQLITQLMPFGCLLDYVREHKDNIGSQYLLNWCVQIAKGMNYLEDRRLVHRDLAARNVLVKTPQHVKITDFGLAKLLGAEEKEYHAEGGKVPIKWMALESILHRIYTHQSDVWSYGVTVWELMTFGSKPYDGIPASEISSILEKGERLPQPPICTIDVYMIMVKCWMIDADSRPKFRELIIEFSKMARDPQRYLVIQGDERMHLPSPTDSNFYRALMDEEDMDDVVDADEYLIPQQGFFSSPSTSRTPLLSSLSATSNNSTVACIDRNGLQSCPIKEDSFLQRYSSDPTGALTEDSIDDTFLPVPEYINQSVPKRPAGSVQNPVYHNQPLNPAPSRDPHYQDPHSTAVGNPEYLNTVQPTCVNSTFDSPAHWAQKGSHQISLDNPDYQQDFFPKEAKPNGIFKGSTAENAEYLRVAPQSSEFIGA

[11] = biological target: Dual specificity protein kinase CLK4 (Homo sapiens) (UniProt Q9HAZ1); details: Compound concentration 1000.0 nM
[12] = biological target: Serine/threonine-protein kinase PknB (Mycobacterium tuberculosis) (UniProt P9WI81); details: Compound concentration 1000.0 nM
[13] = biological target: Phosphatidylinositol 4,5-bisphosphate 3-kinase catalytic subunit alpha isoform (Homo sapiens) (UniProt P42336); details: Compound concentration 1000.0 nM
[14] = biological target: 5-hydroxytryptamine receptor 1D (Homo sapiens) (UniProt P28221); details: Compound concentration 10.0 uM
[15] = biological target: Serine/threonine-protein kinase Nek7 (Homo sapiens) (UniProt Q8TDX7); details: Compound concentration 1000.0 nM
Chain of Serine/threonine-protein kinase Nek7 (Homo sapiens) (Q8TDX7 whole entry, looked up): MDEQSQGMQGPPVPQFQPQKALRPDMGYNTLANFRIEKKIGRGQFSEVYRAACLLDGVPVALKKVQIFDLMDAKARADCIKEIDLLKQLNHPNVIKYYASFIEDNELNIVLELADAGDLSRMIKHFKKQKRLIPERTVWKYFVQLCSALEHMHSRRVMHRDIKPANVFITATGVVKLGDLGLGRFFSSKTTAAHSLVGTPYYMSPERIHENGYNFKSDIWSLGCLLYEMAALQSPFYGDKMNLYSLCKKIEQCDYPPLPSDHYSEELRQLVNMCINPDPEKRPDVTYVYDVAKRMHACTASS

[16] = biological target: Glycogen synthase kinase-3 alpha (Homo sapiens) (UniProt P49840); details: Compound concentration 1000.0 nM
Chain of Glycogen synthase kinase-3 alpha (Homo sapiens) (P49840 2-483 limits assumed): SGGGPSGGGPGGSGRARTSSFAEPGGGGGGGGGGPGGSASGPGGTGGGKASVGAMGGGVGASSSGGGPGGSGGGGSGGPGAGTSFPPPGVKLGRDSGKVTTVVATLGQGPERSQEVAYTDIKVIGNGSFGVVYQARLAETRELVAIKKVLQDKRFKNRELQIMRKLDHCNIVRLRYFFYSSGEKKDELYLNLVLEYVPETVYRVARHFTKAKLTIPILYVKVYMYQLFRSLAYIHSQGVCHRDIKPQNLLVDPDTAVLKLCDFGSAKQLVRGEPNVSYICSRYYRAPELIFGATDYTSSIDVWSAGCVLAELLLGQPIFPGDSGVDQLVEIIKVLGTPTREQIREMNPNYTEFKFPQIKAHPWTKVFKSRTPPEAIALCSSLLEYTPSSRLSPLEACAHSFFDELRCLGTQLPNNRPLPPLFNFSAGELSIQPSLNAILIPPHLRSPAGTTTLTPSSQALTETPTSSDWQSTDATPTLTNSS

[17] = biological target: T3, Ephrin type-A receptor 1 (Homo sapiens) (UniProt P21709); details: Compound concentration 1000.0 nM
T3 sequence (whole entry): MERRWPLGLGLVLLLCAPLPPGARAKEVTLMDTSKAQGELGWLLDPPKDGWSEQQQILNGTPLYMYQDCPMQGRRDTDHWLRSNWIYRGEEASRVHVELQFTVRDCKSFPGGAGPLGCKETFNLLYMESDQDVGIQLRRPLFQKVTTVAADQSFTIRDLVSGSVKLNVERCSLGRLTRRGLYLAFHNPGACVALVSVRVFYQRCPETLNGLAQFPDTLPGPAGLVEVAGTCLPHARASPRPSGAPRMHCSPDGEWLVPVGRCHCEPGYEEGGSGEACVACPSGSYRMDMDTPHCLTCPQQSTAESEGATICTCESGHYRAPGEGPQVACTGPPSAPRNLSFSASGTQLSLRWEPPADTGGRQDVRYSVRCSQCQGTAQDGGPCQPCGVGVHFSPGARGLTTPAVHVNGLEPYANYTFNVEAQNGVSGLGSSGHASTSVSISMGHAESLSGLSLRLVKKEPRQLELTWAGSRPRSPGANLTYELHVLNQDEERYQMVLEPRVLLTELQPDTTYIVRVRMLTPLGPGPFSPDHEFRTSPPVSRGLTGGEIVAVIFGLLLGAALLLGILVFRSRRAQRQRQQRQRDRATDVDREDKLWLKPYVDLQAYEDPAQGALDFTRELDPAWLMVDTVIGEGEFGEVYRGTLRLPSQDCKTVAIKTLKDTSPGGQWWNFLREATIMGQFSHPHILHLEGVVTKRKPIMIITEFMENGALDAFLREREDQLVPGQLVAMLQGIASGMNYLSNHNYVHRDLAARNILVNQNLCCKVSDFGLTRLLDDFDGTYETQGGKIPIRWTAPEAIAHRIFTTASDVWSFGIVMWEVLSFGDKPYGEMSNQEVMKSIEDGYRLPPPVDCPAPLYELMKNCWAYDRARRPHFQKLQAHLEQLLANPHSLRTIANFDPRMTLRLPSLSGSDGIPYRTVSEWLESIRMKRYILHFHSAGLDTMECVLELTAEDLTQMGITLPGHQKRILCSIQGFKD

[18] = biological target: Phosphorylase b kinase gamma catalytic chain, skeletal muscle/heart isoform (Homo sapiens) (UniProt Q16816); details: Compound concentration 1000.0 nM

CN1CCN(c2cnc3c(C4CCN(C(=O)c5ccc(OC(F)(F)F)cc5N)CC4)ncnc3c2)CC1 [BAY-885]
inactive: residual activity [1] 100% | residual activity [2] 100% | residual activity [3] 85% | residual activity [4] 100% | residual activity [5] 100% | residual activity [6] 88% | residual activity [7] 91% | residual activity [8] 100% | residual activity [9] 100% | residual activity [10] 77% | residual activity [11] 98% | residual activity [12] 97% | residual activity [13] 95% | inhibition [14] 16% | residual activity [15] 100% | residual activity [16] 100% | residual activity [17] 95% | residual activity [18] 100%

Cc1nc(C2CCN(C(=O)c3ccc(OC(F)(F)F)cc3N)CC2)c2ncc(N3CCN(C)CC3)cc2n1 [BAY-693]
inactive: residual activity [1] 100% | residual activity [2] 100% | residual activity [3] 100% | residual activity [4] 100% | residual activity [5] 84% | residual activity [6] 100% | residual activity [7] 92% | residual activity [8] 99% | residual activity [9] 93% | residual activity [10] 91% | residual activity [11] 97% | residual activity [12] 100% | residual activity [13] 81% | inhibition [14] -2.17% | residual activity [15] 100% | residual activity [16] 85% | residual activity [17] 100% | residual activity [18] 100%
